Assay results from ChEMBL document CHEMBL1153711, “Synthesis and antimycobacterial evaluation of novel 5,6-dimethoxy-1-oxo-2,5-dihydro-1H-2-indenyl-5,4-substituted phenyl methanone analogues” (Bioorg Med Chem Lett, 2009).
Values after ≈ are worked out from the molar mass of the structure shown.

System: Mycobacterium tuberculosis
Experiment: Antimycobacterial activity against Mycobacterium tuberculosis H37Rv by agar dilution method
Assay type: functional

`COc1cc2c(cc1OC)C(=O)C(C(=O)c1c(Cl)cccc1Cl)C2` (stereo not drawn) gave an MIC of 2.48 µM (≈ 0.906 µg/mL).
In the case of `COc1cc2c(cc1OC)C(=O)C(C(=O)c1cccc([N+](=O)[O-])c1)C2` (stereo not drawn), the MIC is reported as 3.46 µM (≈ 1.18 µg/mL).
In the case of `COc1cc2c(cc1OC)C(=O)C(C(=O)c1ccc(Br)cc1)C2` (stereo not drawn), the MIC is reported as 4.94 µM (≈ 1.85 µg/mL).
`COc1cc2c(cc1OC)C(=O)C(C(=O)c1ccc(C#N)cc1)C2` (stereo not drawn) was tested, and the MIC was > 6.25 µM.
`COc1cc2c(cc1OC)C(=O)C(C(=O)c1ccc(N(C)C)cc1)C2` (stereo not drawn) gave an MIC of 5.94 µM (≈ 2.02 µg/mL).
For `COc1ccc(C(=O)C2Cc3cc(OC)c(OC)cc3C2=O)cc1` (stereo not drawn), the MIC was > 6.25 µM.
Compound `COc1cc2c(cc1OC)C(=O)C(C(=O)c1ccc(Cl)cc1)C2` (stereo not drawn) has an MIC of 1.52 µM (≈ 0.503 µg/mL).
Compound `COc1cc2c(cc1OC)C(=O)C(C(=O)c1ccccc1)C2` (stereo not drawn) has an MIC of 6.62 µM (≈ 1.96 µg/mL).
`COc1ccc(C(=O)C2Cc3cc(OC)c(OC)cc3C2=O)cc1OC` (stereo not drawn) was tested, and the MIC was > 6.25 µM.
For `COc1cc2c(cc1OC)C(=O)C(C(=O)c1cc(OC)c(OC)c(OC)c1)C2` (stereo not drawn), the MIC was > 6.25 µM.
In the case of `COc1cc2c(cc1OC)C(=O)C(C(=O)c1ccc(F)cc1)C2` (stereo not drawn), the MIC is reported as 0.1 µM (≈ 0.0314 µg/mL).
`COc1cc2c(cc1OC)C(=O)C(C(=O)c1ccccc1Cl)C2` (stereo not drawn) was tested, and the MIC was 1.82 µM (≈ 0.602 µg/mL).
`NNC(=O)c1ccncc1` [ISONIAZID] gave an MIC of 0.75 µM (≈ 0.103 µg/mL).
